The record followed here is BindingDB's records for patent US117808 (Pfizer, 2023).

This experiment addresses Protein kinase C beta type Isoform 2 (Homo sapiens, UniProt P05771). Briefly: Protein Kinase C beta 2 (PKCpII) Assay. The protocol:
Protein Kinase C beta 2 (PKCpII) catalyzes the production of ADP from ATP that accompanies the phosphoryl transfer to the PKC Pseudosubstrate peptide (A→S, RFARKGSLRQKNV). This transfer is coupled to the oxidation of β-NADH through the activities of Pyruvate Kinase (PK) and Lactate Dehydrogenase (LDH). β-NADH conversion to NAD+ is monitored by the decrease in absorbance at 340 nm (e=6.22 cm−1 mM−1) using a Molecular Devices SPECTRA max PLUS spectrophotometer.A typical assay was carried out on a 96-well, clear microtiter plate in a Molecular Devices spectrophotometer for 20 minutes at 30° C. in 0.1 mL of assay buffer containing 50 mM HEPES, pH 7.4, 5 nM PKC, 23 units of pyruvate kinase, 33 units of lactate dehydrogenase, 0.15 mM peptide, 0.1 mM ATP, 1 mM DTT, 4 mM PEP, 8 mM MgCl2, 0.3 mM NADH, […]), 10 mg/mL PS, 50 ng/mL PMA, 7.5% DMSO and from about 10,000 nM to 0.169 nM compound inhibitor. Stock solutions of 3-sn-phosphatidyl-L-serine (PS) and phorbol-12-myristate-13-acetate (PMA) were sonicated for 30 seconds just prior to addition to assay buffer and assays were initiated by the addition of 100 μM ATP.

Protein kinase C beta type Isoform 2, sequence (P05771 as listed by the source): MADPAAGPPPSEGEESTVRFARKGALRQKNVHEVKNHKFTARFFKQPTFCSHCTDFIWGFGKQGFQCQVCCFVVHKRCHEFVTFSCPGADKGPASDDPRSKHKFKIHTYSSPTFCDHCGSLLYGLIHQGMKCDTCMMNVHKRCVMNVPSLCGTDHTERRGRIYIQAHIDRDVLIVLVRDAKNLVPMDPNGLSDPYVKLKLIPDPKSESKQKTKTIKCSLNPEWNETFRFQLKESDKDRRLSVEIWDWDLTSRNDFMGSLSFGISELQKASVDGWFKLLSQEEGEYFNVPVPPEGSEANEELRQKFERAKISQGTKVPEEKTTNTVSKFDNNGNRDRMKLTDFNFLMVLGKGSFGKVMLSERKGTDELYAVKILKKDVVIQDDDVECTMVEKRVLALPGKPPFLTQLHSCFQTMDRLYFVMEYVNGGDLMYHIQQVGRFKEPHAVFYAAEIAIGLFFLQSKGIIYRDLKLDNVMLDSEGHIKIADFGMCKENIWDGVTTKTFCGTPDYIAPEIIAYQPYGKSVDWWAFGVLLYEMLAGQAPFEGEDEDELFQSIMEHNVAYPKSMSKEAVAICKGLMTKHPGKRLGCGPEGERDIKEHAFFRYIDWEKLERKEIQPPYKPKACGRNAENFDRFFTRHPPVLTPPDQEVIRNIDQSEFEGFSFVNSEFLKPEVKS

A word on the Ki: it is the dissociation constant of the complex between target and ligand, obtained from inhibition or displacement. `Cc1ncc(F)c(Nc2n[nH]c3c2CN(C(=O)N2C[C@@H](C)N(C)C[C@@H]2C)C3(C)C)n1` [US11220518, Ex. No. H2] showed a Ki of 2.63 nM.
